Measured values published in ChEMBL document CHEMBL4665665, “4-Aryl Pyrrolidines as Novel Orally Efficacious Antimalarial Agents. Part 2: 2-Aryl-N-(4-arylpyrrolidin-3-yl)acetamides” (ACS Med Chem Lett, 2019).
Calls of active or inactive are those of the source. No cut-off for these calls is given here.

Key:
Plasmodium falciparum [1] = experiment: Antimalarial activity against CQ-sensitive Plasmodium falciparum 3D7 incubated for 72 hrs by SYBR Green-1 dye based fluorescence assay; assay type: functional, organism-based
[2] = Half life in KM mouse at 2 mg/kg, iv administered as cassette dosing measured up to 24 hrs by LC/MS analysis; assay type: ADME, organism-based; details: in vivo
Plasmodium chabaudi [3] = experiment: Antimalarial activity against Plasmodium chabaudi ASS infected in NIH mouse assessed as inhibition of parasitemia at 10 mg/kg, po qd for 4 days starting from 4 hrs post-parasite inoculation and measured at 24 hrs after last-drug treatment by Peter's 4-day suppressive test relative to control; assay type: functional; details: 96 h
[4] = Apparent clearance in KM mouse at 2 mg/kg, iv administered as cassette dosing measured up to 24 hrs by LC/MS analysis; assay type: ADME, organism-based; details: in vivo
hERG = experiment: Selectivity ratio of IC50 for human ERG incubated for 2 hrs by fluorescence polarization assay to IC50 for CQ-sensitive Plasmodium falciparum 3D7 incubated for 72 hrs by SYBR Green-1 dye based fluorescence assay; assay type: toxicity; details: read-out: Ratio IC50
[5] = biological target: Voltage-gated inwardly rectifying potassium channel KCNH2 (Homo sapiens, UniProt Q12809); experiment: Displacement of Tracer Red from human ERG incubated for 2 hrs by fluorescence polarization assay
Plasmodium falciparum [6] = experiment: Antimalarial activity against multidrug resistant Plasmodium falciparum Dd2 incubated for 72 hrs by SYBR Green-1 dye based fluorescence assay; assay type: functional, organism-based; details: Dd2, 72 h
Cytochrome P450 2C19 = Cytochrome P450 2C19 (Homo sapiens, UniProt P33261); experiment: Inhibition of recombinant human CYP2C19 expressed in baculovirus infected insect cells using s-mephenytoin as substrate incubated for 30 mins in presence of NADPH-regenerating system by fluorescence based assay; assay type: ADME
Cytochrome P450 3A4 = Cytochrome P450 3A4 (Homo sapiens, UniProt P08684); experiment: Inhibition of recombinant human CYP3A4 expressed in baculovirus infected insect cells using midazolam as substrate incubated for 30 mins in presence of NADPH-regenerating system by fluorescence based assay; assay type: ADME
[7] = (§1) Plasma concentration in NIH mouse infected with Plasmodium chabaudi ASS at 10 mg/kg, po qd for 4 days starting from 4 hrs post-parasite inoculation and measured at 24 hrs post-dosing on day 4 by LC/MS analysis; assay type: ADME, organism-based; details: dose 10 mg/kg/day, time 4 day
[8] = Plasma concentration in NIH mouse infected with Plasmodium chabaudi ASS at 10 mg/kg, po qd for 4 days starting from 4 hrs post-parasite inoculation and measured at 6 hrs post-dosing on day 4 by LC/MS analysis; assay type: ADME, organism-based; details: dose 10 mg/kg/day, time 4 day
HepG2 = experiment: Cytotoxicity against human HepG2 cells assessed as cell viability at 5 uM incubated for 72 hrs by PrestoBlue cell viability reagent based assay; details: hepg2, 72 h
Cytochrome P450 2D6 = Cytochrome P450 2D6 (Homo sapiens, UniProt P10635); experiment: Inhibition of recombinant human CYP2D6 expressed in baculovirus infected insect cells using dextromethorphan as substrate incubated for 30 mins in presence of NADPH-regenerating system by fluorescence based assay; assay type: ADME
[9] = biological target: Beta-secretase 1 (Homo sapiens) (UniProt P56817); experiment: Inhibition of recombinant human BACE1 using Mca-SEVNLDAEFRK(Dnp)RR-NH2 fluorogenic peptide as substrate incubated for 60 mis by fluorescence based assay; details: time 60.0 min
Cytochrome P450 1A2 = biological target: T1, Cytochrome P450 1A2 (Homo sapiens, UniProt P05177); experiment: Inhibition of recombinant human CYP1A2 expressed in baculovirus infected insect cells using phenacetin as substrate incubated for 30 mins in presence of NADPH-regenerating system by fluorescence based assay; assay type: ADME
T1 sequence (P05177 whole entry): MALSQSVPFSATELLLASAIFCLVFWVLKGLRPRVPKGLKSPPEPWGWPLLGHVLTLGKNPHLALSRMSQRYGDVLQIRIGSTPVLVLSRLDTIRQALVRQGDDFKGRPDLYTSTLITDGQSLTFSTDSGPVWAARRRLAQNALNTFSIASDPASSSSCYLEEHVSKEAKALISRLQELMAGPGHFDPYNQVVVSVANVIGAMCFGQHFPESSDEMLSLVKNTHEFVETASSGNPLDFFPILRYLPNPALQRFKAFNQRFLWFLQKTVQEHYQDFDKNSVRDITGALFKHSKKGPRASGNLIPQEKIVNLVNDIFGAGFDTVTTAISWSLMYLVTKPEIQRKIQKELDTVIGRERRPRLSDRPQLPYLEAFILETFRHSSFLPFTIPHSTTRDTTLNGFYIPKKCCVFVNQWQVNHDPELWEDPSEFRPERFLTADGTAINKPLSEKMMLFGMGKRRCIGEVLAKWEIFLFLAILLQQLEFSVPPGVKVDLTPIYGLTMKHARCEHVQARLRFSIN

[10] = Apparent volume of distribution in KM mouse at 2 mg/kg, iv administered as cassette dosing measured up to 24 hrs by LC/MS analysis; assay type: ADME, organism-based; details: in vivo, read-out: Vz
Cytochrome P450 2C9 = Cytochrome P450 2C9 (Homo sapiens, UniProt P11712); experiment: Inhibition of recombinant human CYP2C9 expressed in baculovirus infected insect cells using tolbutamide as substrate incubated for 30 mins in presence of NADPH-regenerating system by fluorescence based assay; assay type: ADME
[11] = biological target: Plasmepsin II (Plasmodium falciparum) (UniProt P46925); experiment: Inhibition of Plasmodium falciparum plasmepsin 2 using PM-2 peptide substrate incubated for 60 mis by fluorescence based assay; details: time 60.0 min
[12] = Plasma concentration in NIH mouse infected with Plasmodium chabaudi ASS at 10 mg/kg, po qd for 4 days starting from 4 hrs post-parasite inoculation and measured at 1 hr post-dosing on day 4 by LC/MS analysis; assay type: ADME, organism-based; details: dose 10 mg/kg/day, time 4 day
[13] = as §1, with “Ratio of IC50 for antimalarial activity against CQ-sensitive Plasmodium falciparum 3D7 incubated for 72 hrs by SYBR Green-1 dye based fluorescence assay to Plasma” for “Plasma”
Plasmodium falciparum [14] = experiment: Inhibition of Plasmodium falciparum plasmepsin 4 using PM-2 peptide substrate incubated for 60 mis by fluorescence based assay; details: time 60.0 min
Plasmodium chabaudi [15] = experiment: Antimalarial activity against Plasmodium chabaudi ASS infected in NIH mouse assessed as inhibition of parasitemia at 30 mg/kg, po qd for 4 days starting from 4 hrs post-parasite inoculation and measured at 24 hrs after last-drug treatment by Peter's 4-day suppressive test relative to control; assay type: functional; details: 96 h
[16] = Plasmodium falciparum, 3D7, 72 h

Sequence of Beta-secretase 1 (Homo sapiens) (P56817 whole entry): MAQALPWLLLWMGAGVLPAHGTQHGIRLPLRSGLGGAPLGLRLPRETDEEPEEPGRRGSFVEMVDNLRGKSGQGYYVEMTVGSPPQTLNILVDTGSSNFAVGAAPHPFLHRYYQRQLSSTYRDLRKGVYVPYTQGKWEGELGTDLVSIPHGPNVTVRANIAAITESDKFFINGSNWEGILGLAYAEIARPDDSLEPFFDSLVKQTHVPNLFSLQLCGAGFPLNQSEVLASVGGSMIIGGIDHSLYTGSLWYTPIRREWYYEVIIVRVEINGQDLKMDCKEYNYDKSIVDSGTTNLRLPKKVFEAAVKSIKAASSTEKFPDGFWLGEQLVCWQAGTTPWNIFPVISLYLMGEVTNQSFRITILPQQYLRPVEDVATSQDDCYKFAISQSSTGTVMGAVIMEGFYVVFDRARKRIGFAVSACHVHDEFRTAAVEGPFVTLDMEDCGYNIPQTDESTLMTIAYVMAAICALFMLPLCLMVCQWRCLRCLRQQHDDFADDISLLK
Sequence of Plasmepsin II (Plasmodium falciparum) (P46925 125-453 limits assumed): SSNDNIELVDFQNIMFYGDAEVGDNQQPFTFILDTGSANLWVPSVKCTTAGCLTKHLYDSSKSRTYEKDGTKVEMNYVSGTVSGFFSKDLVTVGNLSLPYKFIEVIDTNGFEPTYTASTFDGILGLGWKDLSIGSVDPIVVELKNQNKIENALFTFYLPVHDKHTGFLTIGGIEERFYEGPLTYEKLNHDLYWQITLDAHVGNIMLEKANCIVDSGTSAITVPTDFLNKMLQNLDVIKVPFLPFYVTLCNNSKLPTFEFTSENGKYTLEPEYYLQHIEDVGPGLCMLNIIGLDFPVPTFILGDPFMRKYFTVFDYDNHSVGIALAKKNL
Sequence of Voltage-gated inwardly rectifying potassium channel KCNH2 (Q12809 whole entry): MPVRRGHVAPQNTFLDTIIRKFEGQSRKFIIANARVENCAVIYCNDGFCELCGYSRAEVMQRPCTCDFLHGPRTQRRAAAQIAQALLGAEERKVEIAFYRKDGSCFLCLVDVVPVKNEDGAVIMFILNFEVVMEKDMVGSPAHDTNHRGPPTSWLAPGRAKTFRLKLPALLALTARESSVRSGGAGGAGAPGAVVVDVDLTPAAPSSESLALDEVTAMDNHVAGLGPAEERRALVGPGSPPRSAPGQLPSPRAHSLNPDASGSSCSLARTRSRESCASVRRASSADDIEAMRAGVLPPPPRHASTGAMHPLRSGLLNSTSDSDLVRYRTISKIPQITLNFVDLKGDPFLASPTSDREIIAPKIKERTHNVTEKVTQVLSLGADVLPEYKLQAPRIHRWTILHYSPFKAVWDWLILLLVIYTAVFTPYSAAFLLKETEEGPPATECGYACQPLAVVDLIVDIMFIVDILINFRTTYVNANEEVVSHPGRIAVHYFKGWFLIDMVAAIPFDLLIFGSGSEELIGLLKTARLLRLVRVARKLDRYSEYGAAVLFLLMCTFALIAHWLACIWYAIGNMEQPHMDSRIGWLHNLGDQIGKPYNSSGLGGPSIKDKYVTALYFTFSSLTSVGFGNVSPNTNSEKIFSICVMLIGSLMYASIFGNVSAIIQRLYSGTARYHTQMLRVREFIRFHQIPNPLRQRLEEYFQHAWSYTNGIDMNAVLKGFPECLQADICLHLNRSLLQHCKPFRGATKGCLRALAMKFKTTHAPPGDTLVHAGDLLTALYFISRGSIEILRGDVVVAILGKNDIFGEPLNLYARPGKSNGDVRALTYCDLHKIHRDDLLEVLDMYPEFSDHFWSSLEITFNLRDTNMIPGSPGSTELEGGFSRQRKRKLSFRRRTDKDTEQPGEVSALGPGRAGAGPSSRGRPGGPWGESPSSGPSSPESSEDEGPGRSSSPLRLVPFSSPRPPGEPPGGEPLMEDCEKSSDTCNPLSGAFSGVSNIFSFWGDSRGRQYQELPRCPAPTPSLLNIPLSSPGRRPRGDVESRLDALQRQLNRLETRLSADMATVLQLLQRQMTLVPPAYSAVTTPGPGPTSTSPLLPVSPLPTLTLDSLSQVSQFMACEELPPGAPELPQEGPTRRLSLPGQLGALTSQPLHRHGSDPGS
Sequence of Cytochrome P450 2D6 (P10635 whole entry): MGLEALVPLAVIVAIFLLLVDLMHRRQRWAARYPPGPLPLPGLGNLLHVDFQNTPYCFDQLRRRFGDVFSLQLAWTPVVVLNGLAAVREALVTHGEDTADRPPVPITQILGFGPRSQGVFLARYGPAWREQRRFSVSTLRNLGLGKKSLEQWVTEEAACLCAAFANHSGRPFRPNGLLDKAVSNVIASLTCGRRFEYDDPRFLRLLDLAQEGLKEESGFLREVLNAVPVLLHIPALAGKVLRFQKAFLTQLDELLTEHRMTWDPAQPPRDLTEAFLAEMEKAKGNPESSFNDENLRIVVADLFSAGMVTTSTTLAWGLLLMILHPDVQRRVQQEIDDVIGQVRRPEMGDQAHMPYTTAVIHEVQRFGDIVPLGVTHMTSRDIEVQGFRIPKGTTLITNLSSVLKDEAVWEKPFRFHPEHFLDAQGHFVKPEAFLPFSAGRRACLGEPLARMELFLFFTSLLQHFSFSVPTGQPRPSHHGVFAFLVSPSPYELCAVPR
Sequence of Cytochrome P450 3A4 (P08684 whole entry): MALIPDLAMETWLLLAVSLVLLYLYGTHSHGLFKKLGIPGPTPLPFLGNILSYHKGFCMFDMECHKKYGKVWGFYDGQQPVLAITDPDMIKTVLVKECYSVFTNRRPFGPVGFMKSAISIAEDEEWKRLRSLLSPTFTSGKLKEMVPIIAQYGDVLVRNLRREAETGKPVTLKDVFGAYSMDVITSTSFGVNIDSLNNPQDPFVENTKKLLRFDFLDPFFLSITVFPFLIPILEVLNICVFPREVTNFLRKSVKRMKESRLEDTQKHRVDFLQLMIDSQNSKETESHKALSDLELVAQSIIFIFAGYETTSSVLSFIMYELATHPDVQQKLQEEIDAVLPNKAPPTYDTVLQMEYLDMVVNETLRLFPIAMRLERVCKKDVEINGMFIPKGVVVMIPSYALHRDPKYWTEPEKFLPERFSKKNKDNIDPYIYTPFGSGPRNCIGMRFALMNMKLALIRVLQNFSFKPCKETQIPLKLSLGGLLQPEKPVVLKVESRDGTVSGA
Sequence of Cytochrome P450 2C9 (P11712 whole entry): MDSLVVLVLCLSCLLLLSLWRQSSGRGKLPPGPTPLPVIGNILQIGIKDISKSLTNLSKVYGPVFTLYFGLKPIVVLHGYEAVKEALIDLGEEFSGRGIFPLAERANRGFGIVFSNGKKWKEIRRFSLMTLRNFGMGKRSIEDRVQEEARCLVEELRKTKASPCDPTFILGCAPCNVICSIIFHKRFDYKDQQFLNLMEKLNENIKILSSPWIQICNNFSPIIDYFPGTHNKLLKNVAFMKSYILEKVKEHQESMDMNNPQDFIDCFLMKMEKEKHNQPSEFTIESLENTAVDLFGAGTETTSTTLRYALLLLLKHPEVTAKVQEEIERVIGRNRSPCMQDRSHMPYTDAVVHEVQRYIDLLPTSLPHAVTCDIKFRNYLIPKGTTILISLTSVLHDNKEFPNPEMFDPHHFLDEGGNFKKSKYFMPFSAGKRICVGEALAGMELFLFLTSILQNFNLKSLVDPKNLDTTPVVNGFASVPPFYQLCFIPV
Sequence of Cytochrome P450 2C19 (P33261 whole entry): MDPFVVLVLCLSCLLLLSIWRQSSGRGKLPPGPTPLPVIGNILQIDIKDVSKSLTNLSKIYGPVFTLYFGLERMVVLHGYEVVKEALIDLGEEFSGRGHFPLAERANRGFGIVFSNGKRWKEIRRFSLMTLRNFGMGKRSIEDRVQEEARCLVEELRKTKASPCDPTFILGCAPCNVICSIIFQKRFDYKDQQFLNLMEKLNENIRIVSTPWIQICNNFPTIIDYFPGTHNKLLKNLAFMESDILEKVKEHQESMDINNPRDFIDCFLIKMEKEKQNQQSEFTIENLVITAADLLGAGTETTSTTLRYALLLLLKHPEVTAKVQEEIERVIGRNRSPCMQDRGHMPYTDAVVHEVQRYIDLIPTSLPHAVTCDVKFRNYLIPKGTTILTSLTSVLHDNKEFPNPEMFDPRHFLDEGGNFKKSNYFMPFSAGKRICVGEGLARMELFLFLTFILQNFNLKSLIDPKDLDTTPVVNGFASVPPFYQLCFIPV

CC(C)c1ccc(CC(=O)N[C@H]2CNC[C@@H]2c2ccc(C(F)(F)F)cc2)cc1 (racemic)
IC50 (Plasmodium falciparum [1]; [16]): 600 nM

CN(C)c1ccc(CC(=O)N[C@@H]2CNC[C@H]2c2ccc(C(F)(F)F)c(Cl)c2)cc1
IC50 (Plasmodium falciparum [1]; [16]): 120 nM

CN(C)c1ccc(CC(=O)N[C@H]2CNC[C@@H]2c2ccc(S(F)(F)(F)(F)F)cc2)cc1
IC50 (Plasmodium falciparum [1]; [16]): 1200 nM

CN(C)c1ccc(CC(=O)N[C@@H]2CNC[C@H]2c2ccc(C(F)(F)F)cc2)cc1
half-life [2]: 5.6 h
inhibition in vivo at 10 mg/kg/day (Plasmodium chabaudi [3]): 61.2%
clearance [4]: 7.9 mL/min/kg
selectivity ratio at 2 h (hERG): 49
IC50 [5]: 5910 nM
IC50 (Plasmodium falciparum [6]): 78 nM
IC50 (Cytochrome P450 2C19): 45400 nM
IC50 (Cytochrome P450 3A4): 871 nM
concentration at 96 h [7]: 7.4 nM
concentration at 96 h [8]: 181 nM
Activity (HepG2): Non-Toxic
IC50 (Cytochrome P450 2D6): 24500 nM
inhibition [9]: inactive
IC50 (Cytochrome P450 1A2): > 100000 nM
Vd [10]: 4.2 L/kg
IC50 (Cytochrome P450 2C9): 98100 nM
IC50 (Plasmodium falciparum [1]; [16]): 120 nM
inhibition [11]: inactive
concentration at 96 h [12]: 255 nM
Ratio [13]: 6
inhibition (Plasmodium falciparum [14]): inactive

CN(C)c1ccc(CC(=O)N[C@@H]2CNC[C@H]2c2ccc(Br)cc2)cc1
IC50 (Plasmodium falciparum [1]; [16]): 140 nM

C[C@@H]1CC[C@H]2[C@@H](C)C(=O)O[C@@H]3O[C@@]4(C)CC[C@@H]1[C@]32OO4 [ARTEMISININ]
IC50 (Plasmodium falciparum [1]; [16]): 33 nM

CCN(CC)CCCC(C)Nc1ccnc2cc(Cl)ccc12 (configuration not stated) [CHLOROQUINE]
inhibition in vivo at 10 mg/kg/day (Plasmodium chabaudi [3]): 99.9%
concentration at 96 h [7]: 68.6 nM
concentration at 96 h [8]: 83.4 nM
concentration at 96 h [12]: 80.7 nM

CN(C)c1ccc(CC(=O)N(C)[C@@H]2CNC[C@H]2c2ccc(C(F)(F)F)cc2)cc1
IC50 (Plasmodium falciparum [1]; [16]): 200 nM

CN(C)c1ccc(CC(=O)N[C@@H]2CNC[C@H]2c2ccc(C(C)(F)F)nc2)cc1
IC50 (Plasmodium falciparum [1]; [16]): 60 nM

CN(C)c1ccc(CNC(=O)[C@H]2CNC[C@@H]2c2ccc(C(F)(F)F)nc2)cc1 (racemic)
IC50 (Plasmodium falciparum [1]; [16]): 250 nM

Cc1ccc(CC(=O)N[C@H]2CNC[C@@H]2c2ccc(C(F)(F)F)cc2)nc1 (racemic)
IC50 (Plasmodium falciparum [1]; [16]): 1600 nM

CN(C)c1ccc(CC(=O)N[C@@H]2CNC[C@H]2c2cc3ccccc3s2)cc1
IC50 (Plasmodium falciparum [1]; [16]): 150 nM

COc1ccc(CC(=O)N[C@H]2CNC[C@@H]2c2ccc(C(F)(F)F)cc2)cn1 (racemic)
IC50 (Plasmodium falciparum [1]; [16]): 2200 nM

CN(C)c1ccc(CC(=O)N[C@@H]2CNC[C@H]2c2cccc(S(F)(F)(F)(F)F)c2)cc1
IC50 (Plasmodium falciparum [1]; [16]): 59 nM

C[C@H](NC(=O)[C@H]1CNC[C@@H]1c1ccc(C(F)(F)F)cc1)c1ccc(N(C)C)cc1
inhibition in vivo at 30 mg/kg/day (Plasmodium chabaudi [15]): 92.2%

Nc1ccc(CC(=O)N[C@H]2CNC[C@@H]2c2ccc(C(F)(F)F)cc2)cc1 (racemic)
IC50 (Plasmodium falciparum [1]; [16]): 2900 nM

CN(C)c1ccc(CC(=O)N[C@H]2CNC[C@@H]2c2ccc(C(F)(F)F)cc2)cc1
IC50 (Plasmodium falciparum [1]): 860 nM

CN(C)c1ccc(CC(=O)N[C@H]2CNC[C@@H]2c2ccc(C(F)(F)F)cc2)cc1 (racemic)
IC50 (Plasmodium falciparum [1]): 96 nM

CN(C)c1cccc(CC(=O)N[C@H]2CNC[C@@H]2c2ccc(C(F)(F)F)cc2)c1 (racemic)
IC50 (Plasmodium falciparum [1]; [16]): 230 nM
